Here are results for 88 compounds from a melting point compilation (Tetko et al.; mined from patent text by program, amines drawn as free bases though some values may be those of a salt).

SMILES strings stand for the structures. Some results are limits rather than exact numbers.

Usually melting point stands for the temperature of the solid-liquid transition.

Regarding `CC(C)(C)NS(=O)(=O)c1ccccc1CCCl`, the melting point lay within 64 to 65 °C.
For the compound `O=C(O)[C@H](Cc1ccccc1)NS(=O)(=O)c1ccccc1`, the melting point is 150 to 152 °C.
The compound `COc1ccc(Nc2cc(-c3ccc(F)cc3)nc3ccccc23)cc1Cl` returned a melting point of 260 °C.
`CCOC(=O)C(S)C(=S)Cc1ccc(Cl)cc1` (stereo not drawn): the melting point is 36.5 to 37 °C.
Turning to `N#Cc1c(N)nc2ccc(N3CCN(Cc4ccccc4)CC3)cc2c1NCc1ccccc1`, the melting point is 202 °C.
The compound `CCOC(=O)c1ccc(OCC(O)COc2cccc3oc(C(=O)OCC)cc(=O)c23)cc1` (stereo not drawn) came in with a melting point of 134 to 135 °C.
Regarding `COC(Oc1cc(Cl)c(Cl)c(Cl)c1)C(=O)O` (stereo not drawn), the melting point fell in the range of 101 to 104 °C.
`CSCCN1C(=O)N2CCOC2(c2ccccc2)c2cc(Cl)ccc21` (stereo not drawn) showed a melting point of 145 to 146 °C.
The same measure for `Cc1[nH]c(-c2ccccc2)nc1C(=O)C=CN(C)C`: 218 to 222 °C; for `Cc1c(-c2cc(F)cc(C(F)(F)F)c2)ccc(N)c1C#N`: 96 to 97 °C.
The same measure for `O=C(Cc1ccc2nc(CCCOc3cccc(CN4CCCC4)c3)[nH]c2c1)N1CCCC1`: 68 °C; for `CCOC(=O)Nc1c(C)cc(Cl)cc1C(=O)O`: 124 to 126 °C.
`Cc1oc(-c2ccccc2)nc1COc1ccc(/C=C/C(=O)C(=O)O)cc1` yielded a melting point of 197 to 198 °C.
Regarding `CCOC(=O)C1=C(C)NC(=S)N(C(=O)OCC)C1c1ccc([N+](=O)[O-])cc1` (stereo not drawn), the melting point fell in the range of 163 to 165 °C.
The same measure for `Nc1c(F)c(F)cc(C(=O)O)c1F`: 133 to 136 °C; for `CNC(=O)c1cccc(NC(=O)Nc2ccccc2)c1`: 209 to 210 °C; for `CC(C)(O)C#Cc1ccc(C(=C2CC(C)(C)CC(C)(C)C2)c2ccc(O)cc2)cc1`: 186 to 187 °C.
On to `CSc1ccc(/C=C2\C=C(CCN(O)C(N)=O)c3ccccc32)cc1`, for which the melting point is 175 to 176 °C.
In the case of `N#Cc1c(Cl)ccc(Cl)c1Cl`, the melting point lay within 117 to 119 °C.
The same measure for `N#Cc1cnn(-c2ccc(Cl)c(Cl)c2Cl)c1N`: 154 to 156 °C; for `O=C1c2ccccc2C(=O)c2sc(-c3ncc(-c4ccccc4)o3)nc21`: over 260 °C.
In turn, `Cc1ccccc1Nc1nc(O)c2sccc2n1` registered a melting point of 243 to 245 °C.
Compound `CC#CCn1nc(-c2ccc(F)cc2)c(-c2ccc(S(C)(=O)=O)cc2)cc1=O` gave a melting point of 81 to 82 °C.
In the case of `O=C(O)c1coc2ccc3ccc(O)cc3c2c1=O`, the melting point lay in the range of 294 to 296 °C.
As to `CC1OC(C)(C)c2cc(-c3ccc(C#N)n3C(=O)OC(C)(C)C)ccc2N1C(=O)OCC1c2ccccc2-c2ccccc21` (stereo not drawn), the melting point was 135 to 136 °C.
In turn, `CCOC(=O)NC(=O)C(C#N)=CNNc1ccc(OC(F)F)cc1` registered a melting point of 144 to 146 °C.
Compound `O=C(O)c1cc(C(=O)O)c2cc(Cc3ccc(F)cc3)cnc2c1O` came in with a melting point of 279 to 282 °C.
In turn, `O=C(COc1cc(-c2ccccc2)nc2ccccc12)N1CCCC1` gave a melting point of 135 °C.
With `O=C(Nc1ccc2nc(CN3CCCC3)ccc2c1)c1ccc(-c2ccc(F)cc2)nc1` the figure was 210 °C.
The same measure for `N#Cc1cc(-c2cc(C(F)F)c3cn[nH]c3n2)ccc1N`: 263 °C; for `CC(C)C[C@H](N)C(=O)N1CCN(C(c2ccc(F)cc2)c2ccc(F)cc2)CC1`: 61 to 68 °C.
As to `CC(=O)Nc1ccc(C2COC(=O)O2)cn1` (stereo not drawn), the melting point is 135 to 139 °C.
With `COc1ccc2cc(OCc3ccccc3)c(C(=O)OCc3ccccc3)cc2c1` the figure was 96 to 98 °C; with `N#Cc1c(N2CCN(C(=O)c3cccs3)CC2)c2cccnc2n(CC2CC2)c1=O`, 189 °C; with `Oc1ccccc1-c1ccccc1P(c1cc(C(F)(F)F)cc(C(F)(F)F)c1)c1cc(C(F)(F)F)cc(C(F)(F)F)c1`, 120 to 121 °C.
Compound `NC(=O)N(O)CC=Cc1ccc(Oc2ccccc2)o1` showed a melting point of 126 to 128 °C.
Compound `COc1ccc(COC(=O)CNC=S)cc1` displayed a melting point of 107 to 108 °C.
Regarding `COn1c(C2CCCCC2)nc2c(N)nc3ccccc3c21`, the melting point was 220 to 222 °C.
Compound `CC(C)n1cc(-c2nc(C(N)=O)c(N)nc2-c2ccc(OC(F)(F)F)cc2)ccc1=O` came in with a melting point of 264 °C.
In the case of `O=C1N(Cc2ccc(Cl)s2)c2cccc(-c3ccoc3)c2C12COc1cc3c(cc12)OCO3` (stereo not drawn), the melting point was 166 to 168 °C.
On to `CS(=O)(=O)N1CCCC(NC(=O)C(CC2CCCC2)NC(=O)c2ccco2)C(=O)C1` (stereo not drawn), for which the melting point lay in the range of 158 to 161 °C.
As for `CN1CC[C@H](c2ccc(Cl)cc2)[C@@H](O)C1` (racemic), the melting point lay within 99 to 100 °C.
Regarding `OC(Cc1ccccn1)c1ccccc1` (stereo not drawn), the melting point is 105 to 107 °C.
In turn, `CCCCCC(CC(=O)Nc1cc(C(N)=O)ccc1C(C)(C)C)c1cc(F)c(OC)cc1OC` (stereo not drawn) came in with a melting point of 150 °C.
The same measure for `S=c1[nH]c2ccc(Cl)cc2c2nc(-c3ccco3)nn12`: 202 to 207 °C; for `O=S(=O)(Cc1ccccc1)C1CCN(Cc2ccccc2)CC1`: 120 to 121 °C.
For `O=C(Nc1ccc2nc(CN3CCCC3)ccc2c1)N1CCC(c2ccccc2)CC1`, the melting point is 187 to 189 °C.
Compound `CCOC(=O)N1CCC2C(O)CCCC21` (stereo not drawn) yielded a melting point of 153 to 155 °C.
As for `N#Cc1ccc(-c2cn(-c3ccc(C#N)cc3)c(C(O)c3ccccc3)n2)cc1` (stereo not drawn), the melting point lay in the range of 217 to 222 °C.
Compound `O=Cc1sccc1Sc1ccccc1` gave a melting point of 99 to 100 °C.
The same measure for `COc1ccc(C=Cc2c(Cl)cncc2Cl)c2c1OCC2C` (stereo not drawn): 117 to 118 °C.
Turning to `O=C(O)CSCc1nccc2ccccc12`, the melting point lay in the range of 186 to 187 °C.
The compound `N#Cc1ccc(OCc2cnsc2)cc1F` had a melting point of 102 to 105 °C.
With `CC(C)(C)OC(=O)N1CC=C(c2cnc(COc3ccc(S(C)(=O)=O)cc3)cc2Cl)CC1` the figure was 148 to 150 °C; with `CC(=O)c1ccc(-c2ccc(C(=O)Nc3ccc4cc(CN5CCCC5)cnc4c3C)cc2)s1`, 194 to 195 °C.
Consider `COC(=O)CCN1CCC(=C2c3ccn(C)c3CCn3ncnc32)CC1`, for which the melting point worked out at 139 °C.
Consider `CCCN(CCC)C(N)=O`, for which the melting point was 69 °C.
In turn, `CC(=O)C1CCC2C3CCC4CC(OC(=O)C(Cl)(Cl)Cl)CCC4(C)C3C(=O)CC12C` (stereo not drawn) gave a melting point of 126 to 127 °C.
The same measure for `CC(C)(CO)NC(=O)c1nn(-c2ccc(F)cc2F)c2c1C1CCC2CC1`: 128 to 131 °C; for `COC(=O)/C(=N/O)c1cccc([N+](=O)[O-])c1`: 140 °C; for `O=c1[nH]c2ncc(-c3ccc(-c4cn[nH]c4)cc3)nc2n1CC1CCCCC1`: 305 to 307 °C.
The compound `COc1ccc(N2CCN(c3c(C)c(C)c4c(c3C)C(O)(c3ccc(C)cc3)C(C)(C)O4)CC2)cc1` (stereo not drawn) gave a melting point of 145 to 147 °C.
With `COc1ccc(N2C(=O)C(C)(C)N(c3ccc(Cc4ccccc4)cc3)C2=S)cc1` the figure was 162 °C; with `COc1ccc(/C=C(\C#N)Cc2ccccc2)cc1OC1CCCC1`, 111 to 112 °C; with `Cn1ccnc1Sc1ccc(Nc2c(C#N)cnc3cc(N4CCC(N5CCCC5)CC4)c([N+](=O)[O-])cc23)cc1Cl`, 220 to 230 °C.
`COc1cc2oc(=O)c(CCO)c(C)c2cc1O` displayed a melting point of 229 to 235 °C.
As for `COc1ccc(C(=O)Nc2ccccc2)cc1NCc1cccc(Cl)c1`, the melting point is 203 to 205 °C.
`O=C(N[C@H](Cc1ccccc1)C(=O)O)OCc1cc2cc(-c3ccccc3)ccc2o1` returned a melting point of 154 to 156 °C.
The same measure for `Cc1sc2c(=O)[nH]cnc2c1Br`: 320 to 322 °C; for `CCOC(COC1CC2C3CCC4=CC(=O)C=CC4(C)C3(F)C(O)CC2(C)C1(O)C(=O)CCl)OCC` (stereo not drawn): 200 to 202 °C.
Consider `CC(C)CC(C)c1cc(C(C(F)(F)F)C(F)(F)F)ccc1NC(=O)c1c(C(F)(F)F)nn(C)c1Cl` (stereo not drawn), for which the melting point lay in the range of 102 to 104 °C.
The same measure for `CNC(=O)NN(CC(=O)OC)c1cccc(OC)c1`: 145 to 146 °C; for `COc1ccc(CNc2nc(C)nc(C)c2Cl)cc1OCc1ccccc1`: 111 to 117 °C; for `CCOC(=O)COc1ccccc1-c1cc(C#N)c(=O)[nH]c1C`: 188 to 190 °C.
With `COC(=O)c1ccc(CCl)nc1C1=NC(C)(C(C)C)C(=O)N1` (stereo not drawn), the melting point was in the range of 127 to 129 °C.
In turn, `CCCC1C(C(=O)OCC)C(O)(C(F)(F)F)OC(O)(C(F)(F)F)C1C(=O)OCC` (stereo not drawn) gave a melting point of 128 to 132 °C.
As to `CCCCc1oc2ccccc2c1C(=O)NCc1ccc2c(-c3ccc(C(C)(C)C)cc3)c(OCc3nnn[nH]3)ccc2c1`, the melting point was in the range of 75 to 78 °C.
The compound `CN(C(=O)CC(CCN1CCC(Cc2ccccc2)CC1)c1ccc(Cl)c(Cl)c1)c1ccc(Cl)cc1` (stereo not drawn) showed a melting point of 67 to 72 °C.
Compound `CC1C(=O)Nc2c(C(=O)c3ccc(Cl)cc3)cccc21` (stereo not drawn) came in with a melting point of 130 to 140 °C.
With `CN(C)Cc1ccc(SC2CCN(C(c3ccccc3)(c3ccccc3)c3ccccc3)CC2)cc1` the figure was 163 °C; with `O=C1CCCCCN1CNC(=S)NCN1CCCC1=O`, 147 to 148 °C; with `Cc1ccnc(NC(=O)Nc2cccc3c2C2CCCCN2C3=O)c1` (stereo not drawn), 178 to 180 °C.
With `Clc1ccc2c(c1)C(c1ccccc1)=NCc1nnc(COC(c3ccccc3)c3ccccc3)n1-2` the figure was 202 to 203 °C.
With `CNS(=O)(=O)c1cccc(-c2cc(-c3nc(-c4ccc(C(F)(F)F)cc4)cc(C(F)(F)F)n3)ccn2)c1` the figure was 174 °C; with `CCOC(=O)c1ccc(NC(C)=O)c(CN(CC)CC)c1`, 57 to 59 °C; with `c1ccc(-c2ccc3[nH]c4ccc(-c5ccccc5)cc4c3c2)cc1`, 145 to 147 °C.
In turn, `COC(=O)c1ccc(OCC2COC(=O)N2c2ccc(Cl)cc2)cc1` (stereo not drawn) displayed a melting point of 135 to 136 °C.
In the case of `CC1=CC(C)(C)Nc2ccc3c(c21)C(=C1SCCCS1)Oc1ccc(F)cc1-3`, the melting point is 120 to 122 °C.
